Measured values from patent US10696615B2, “Prenylated hydroxystilbenes” (The University of Sydney, priority 2011, dated 2020).

Assays:
CDK1/CyclinB = CDK1/CyclinB (Homo sapiens, UniProt P06493); assay: Kinase activity assay; format: biochemical; details: listed = inhibited more than 60%
Protocol: (§1) • Kinase-Glo(Plus)/ADP-Gloassay buffer 25 mMHEPES, 10 mMMgCl2, 0.01% Triton X-100, 100 μg/mLBSA, 2.5 mMDTT, pH7.4. • Caliper assay buffer 100 mMHEPES, 10 mMMgCl2, 100 μl/L Brij35 (30%), 1 mMDTT, pH7.4. Assay Substrates • MBP protein, UnactiveMEK1, Rbprotein were purchased from SignalChem. Poly(glu:tyr)(4:1) was purchased from Sigma. PIP2 was purchased from Cayman. Peptide substrates were synthesized in HD Biosciences, China. ATP was purchased from Sigma. KinaseGloPlus reagent, KinaseGloreagent and ADP Gloreagent were purchased from Promega Assay Procedure—Caliper Format
(§2) Mix Kinases, substrate, ATP and compound in 96-well assay plate, total volume is 50 μL. Incubate assay plate at 30° C. for 1 hour. Stop reaction by adding 20 μL of 35 mM EDTA and transfer 26 μL stopped reaction to 384-well assay plate. Read the assay plate on the plate reader.
(§3) Mix Kinases, substrate, ATP and compound in 384-well assay plate, total volume is 10 μl. Incubate assay plate at 30° C. for 1 hour. Add 10 μl/well of ADP GloReagent to the assay plate, incubate at 27° C. for 40 min.
(§4) Add 20 μl/well Detection Reagent to the assay plate, incubate at 27° C. for 30 min. Read the assay plate on the plate reader
(§5) Mix Kinase, substrate, ATP and compound in 384-well assay plate, total volume is 10 μl. Incubate assay plate at 30° C. for 1 hour. Add 10 μl/well KinaseGlo(Plus) reagent to the reaction mixture, and then incubate at 27° C. for 20 min. Read the assay plate on plate reader. • Hundred percent effect was performed without compound and enzyme, but containing ATP and substrate. • Zero percent effect was carried out without compound, but containing ATP, substrate and enzyme. • SB202190 is reference compounds for kinase p38β; Staurosporine(STSP) is reference compound for the remaining kinases. Results

KDR = KDR (Homo sapiens, UniProt P35968); assay: Kinase activity assay; format: biochemical; details: listed = inhibited more than 60%
Chain of KDR (P35968 20-1356, species assumed): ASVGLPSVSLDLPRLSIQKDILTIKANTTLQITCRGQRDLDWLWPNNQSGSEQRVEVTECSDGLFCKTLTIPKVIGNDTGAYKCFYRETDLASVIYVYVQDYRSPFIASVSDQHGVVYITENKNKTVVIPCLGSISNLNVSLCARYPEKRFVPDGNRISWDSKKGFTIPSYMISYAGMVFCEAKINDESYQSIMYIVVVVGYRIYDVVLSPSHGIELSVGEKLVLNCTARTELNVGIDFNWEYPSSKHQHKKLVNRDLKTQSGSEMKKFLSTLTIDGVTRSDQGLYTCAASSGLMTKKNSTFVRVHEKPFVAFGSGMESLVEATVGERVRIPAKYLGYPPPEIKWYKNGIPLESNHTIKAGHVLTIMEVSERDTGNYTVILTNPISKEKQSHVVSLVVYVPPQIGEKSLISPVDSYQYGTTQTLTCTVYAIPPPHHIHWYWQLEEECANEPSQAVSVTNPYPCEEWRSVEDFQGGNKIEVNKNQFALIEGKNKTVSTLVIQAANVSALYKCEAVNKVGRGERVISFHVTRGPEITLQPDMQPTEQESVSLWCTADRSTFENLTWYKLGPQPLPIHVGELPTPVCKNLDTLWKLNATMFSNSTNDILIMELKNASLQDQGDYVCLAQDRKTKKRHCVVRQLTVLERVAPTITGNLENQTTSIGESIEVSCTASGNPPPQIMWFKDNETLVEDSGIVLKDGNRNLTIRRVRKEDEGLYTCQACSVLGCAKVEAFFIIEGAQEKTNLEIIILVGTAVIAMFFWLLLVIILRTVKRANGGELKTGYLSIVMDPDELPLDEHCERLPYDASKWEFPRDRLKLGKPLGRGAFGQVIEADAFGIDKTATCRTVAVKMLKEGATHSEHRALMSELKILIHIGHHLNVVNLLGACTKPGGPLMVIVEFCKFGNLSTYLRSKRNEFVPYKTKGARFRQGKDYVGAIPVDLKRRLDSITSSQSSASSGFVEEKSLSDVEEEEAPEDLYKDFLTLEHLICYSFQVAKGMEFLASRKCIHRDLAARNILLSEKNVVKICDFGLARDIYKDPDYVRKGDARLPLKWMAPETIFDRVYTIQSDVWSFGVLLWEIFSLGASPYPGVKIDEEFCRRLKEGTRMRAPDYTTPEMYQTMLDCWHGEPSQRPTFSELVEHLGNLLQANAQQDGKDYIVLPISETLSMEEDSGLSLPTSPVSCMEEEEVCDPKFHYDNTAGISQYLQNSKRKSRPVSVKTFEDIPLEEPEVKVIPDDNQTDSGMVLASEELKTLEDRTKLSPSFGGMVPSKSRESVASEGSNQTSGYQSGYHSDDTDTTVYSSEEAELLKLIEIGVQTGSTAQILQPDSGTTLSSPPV
Protocol: as §1, §2, §3, §4, §5

FLT1 = FLT1 (Homo sapiens, UniProt P17948); assay: Kinase activity assay; format: biochemical; details: listed = inhibited more than 60%
Chain of FLT1 (P17948 27-1338, species assumed): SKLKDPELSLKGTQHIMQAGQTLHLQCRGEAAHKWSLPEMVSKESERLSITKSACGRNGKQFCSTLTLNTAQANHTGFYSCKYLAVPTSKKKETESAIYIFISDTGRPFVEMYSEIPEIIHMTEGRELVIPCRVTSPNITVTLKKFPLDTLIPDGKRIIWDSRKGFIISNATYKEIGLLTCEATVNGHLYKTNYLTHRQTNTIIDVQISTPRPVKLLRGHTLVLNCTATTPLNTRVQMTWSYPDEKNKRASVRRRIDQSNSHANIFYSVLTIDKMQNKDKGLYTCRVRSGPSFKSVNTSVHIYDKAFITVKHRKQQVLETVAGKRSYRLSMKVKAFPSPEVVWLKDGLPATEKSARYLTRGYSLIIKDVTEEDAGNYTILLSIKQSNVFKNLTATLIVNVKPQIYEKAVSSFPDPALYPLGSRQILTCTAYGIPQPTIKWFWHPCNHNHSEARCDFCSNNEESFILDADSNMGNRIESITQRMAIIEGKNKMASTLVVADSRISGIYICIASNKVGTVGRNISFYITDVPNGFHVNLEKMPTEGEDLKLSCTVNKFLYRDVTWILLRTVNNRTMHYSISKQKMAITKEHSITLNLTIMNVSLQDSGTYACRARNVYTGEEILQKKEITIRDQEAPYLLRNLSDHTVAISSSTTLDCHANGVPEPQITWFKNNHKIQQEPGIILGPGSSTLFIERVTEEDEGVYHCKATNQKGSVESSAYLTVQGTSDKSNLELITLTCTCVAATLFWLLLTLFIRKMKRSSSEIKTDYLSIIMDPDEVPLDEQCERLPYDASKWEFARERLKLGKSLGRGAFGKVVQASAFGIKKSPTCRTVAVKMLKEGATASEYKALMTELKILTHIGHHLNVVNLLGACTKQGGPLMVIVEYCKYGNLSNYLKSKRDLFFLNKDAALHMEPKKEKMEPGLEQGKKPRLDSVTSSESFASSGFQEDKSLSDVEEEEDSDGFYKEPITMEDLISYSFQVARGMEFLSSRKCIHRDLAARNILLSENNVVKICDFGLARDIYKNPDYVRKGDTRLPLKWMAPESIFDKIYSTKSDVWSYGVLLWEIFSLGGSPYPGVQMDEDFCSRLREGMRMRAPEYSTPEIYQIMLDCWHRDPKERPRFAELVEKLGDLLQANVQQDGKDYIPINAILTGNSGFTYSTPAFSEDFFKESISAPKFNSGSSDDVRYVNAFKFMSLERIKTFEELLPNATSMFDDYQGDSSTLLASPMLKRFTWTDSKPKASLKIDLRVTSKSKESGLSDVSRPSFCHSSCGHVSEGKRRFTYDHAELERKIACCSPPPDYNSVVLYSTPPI
Protocol: as §1, §2, §3, §4, §5

[1] = DPPH scavenging activity assay; details: FIG. 10, result in words
Protocol: The (1,1-diphenyl-2-picrylhydrazyl) DPPH assay is commonly used to test free radical scavenging ability of a compound or extracts of natural products by measurement of the reduction of DPPH* radicals at 517 nm. […] Upon reduction by an antioxidant or radical scavenger, the absorption disappears and the resulting decolorization by scavenging the radical is stoichiometric with respect to the number of electrons taken up (DPPH*+AH→DPPH:H+A*). The DPPH assay was carried out in a stepwise procedure as described below.
A methanolic solution of DPPH (0.1 mM) was stirred in a dark container at room temperature for 20 min. The solution was scanned between 400-750 nm to obtain a maximum wavelength (λmax, ˜510 nm). The concentration of the DPPH solution was adjusted with methanol to result in a maximum absorbance of approximately 1.0. Test samples at different concentrations and standard antioxidant solution (0.05 mL) were added to 0.95 mL of methanolic DPPH solution in a cuvette. Final concentrations of the test samples were 0.1, 1, 10, 50, 100 and 200 μM. The mixtures were shaken vigorously and allowed to stand in the dark for 30 min at room temperature. Absorbance of the resulting solution was measured at the maximum wavelength (˜510 nm). A decrease in absorbance indicated a free radical scavenging effect of the test samples. […]

CDK4/CyclinD3 = CDK4/CyclinD3 (Homo sapiens, UniProt P11802); assay: Kinase activity assay; format: biochemical; details: listed = inhibited more than 60%
Chain of CDK4/CyclinD3 (P11802 whole entry, species assumed): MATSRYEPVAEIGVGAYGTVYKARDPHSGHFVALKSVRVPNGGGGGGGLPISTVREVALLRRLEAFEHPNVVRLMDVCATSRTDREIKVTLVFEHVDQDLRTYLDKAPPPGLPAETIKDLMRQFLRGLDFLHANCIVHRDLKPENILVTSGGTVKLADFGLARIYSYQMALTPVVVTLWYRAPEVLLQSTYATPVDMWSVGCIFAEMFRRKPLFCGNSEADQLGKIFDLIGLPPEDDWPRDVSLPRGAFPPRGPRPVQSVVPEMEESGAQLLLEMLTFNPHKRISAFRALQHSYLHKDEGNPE
Chain of CDK4/CyclinD3 (P30281 whole entry partner, species assumed): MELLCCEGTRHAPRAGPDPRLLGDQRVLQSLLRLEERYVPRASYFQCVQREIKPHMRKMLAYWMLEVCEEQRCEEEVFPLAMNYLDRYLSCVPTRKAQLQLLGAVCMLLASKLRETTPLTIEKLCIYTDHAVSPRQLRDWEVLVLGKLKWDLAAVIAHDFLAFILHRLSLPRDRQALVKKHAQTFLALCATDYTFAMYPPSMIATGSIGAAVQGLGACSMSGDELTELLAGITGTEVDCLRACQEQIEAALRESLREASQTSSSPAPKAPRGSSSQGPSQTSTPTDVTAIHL
Protocol: as §1, §2, §3, §4, §5

[2] = Acute toxicity study (maximum tolerated dose); format: in vivo; details: for Death days / Survivor/Total day 15: IP, single dose
Protocol: A single mouse is given a single IP injection of 400 mg/kg; a second mouse receives a dose of 200 mg/kg IP and a third mouse receives a single dose of 100 mg/kg IP. The mice are observed for a period of 2 weeks. They are sacrificed if they lose more than 20% of their body weight or if there are other signs of significant toxicity. If all 3 mice must be sacrificed, then the next 3 dose levels (50, 25, 12.5 mg/kg) are tested in a similar way. This process is repeated until a tolerated dose is found. This dose is then designated the maximum tolerated dose (MTD) and is used to calculate the amount of material given to experimental mice during anti-tumor testing. The mice are allowed ad libitum feed and water. Drug was dissolved in 100% DMSO at concentration of 200 mg/mL.

Chain of CDK1/CyclinB (P06493 whole entry, species assumed): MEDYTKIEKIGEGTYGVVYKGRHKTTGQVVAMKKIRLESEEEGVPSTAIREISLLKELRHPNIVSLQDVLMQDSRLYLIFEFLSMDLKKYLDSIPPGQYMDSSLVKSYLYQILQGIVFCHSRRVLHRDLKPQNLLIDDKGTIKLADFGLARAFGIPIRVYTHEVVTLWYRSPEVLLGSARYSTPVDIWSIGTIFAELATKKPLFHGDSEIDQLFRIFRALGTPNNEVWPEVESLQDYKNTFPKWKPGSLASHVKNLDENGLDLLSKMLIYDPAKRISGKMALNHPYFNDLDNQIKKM
Chain of CDK1/CyclinB (P14635 whole entry partner, species assumed): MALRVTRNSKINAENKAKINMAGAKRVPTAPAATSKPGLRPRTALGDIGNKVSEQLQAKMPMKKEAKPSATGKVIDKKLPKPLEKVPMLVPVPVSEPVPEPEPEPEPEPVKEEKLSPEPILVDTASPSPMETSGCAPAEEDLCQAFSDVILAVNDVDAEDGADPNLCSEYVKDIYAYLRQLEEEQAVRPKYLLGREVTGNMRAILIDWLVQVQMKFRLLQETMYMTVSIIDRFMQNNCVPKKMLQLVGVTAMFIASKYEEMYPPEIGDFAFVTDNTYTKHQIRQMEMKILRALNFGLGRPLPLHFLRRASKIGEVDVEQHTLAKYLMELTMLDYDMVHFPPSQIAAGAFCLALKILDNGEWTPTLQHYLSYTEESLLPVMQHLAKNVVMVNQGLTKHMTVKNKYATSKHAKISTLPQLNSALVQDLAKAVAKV

## COc1cc(/C=C/c2cc(O)cc(O)c2CC=C(C)C)ccc1O [USYDS10, (E)-2-(3-methyl-2-buten-1-yl)-3,4′,5-trihydroxy-3′-methoxystilbene]
CDK1/CyclinB
  Kinases that inhibited more than 60%: CDK1/CyclinB
KDR
  Kinases that inhibited more than 60%: KDR
FLT1
  Kinases that inhibited more than 60%: FLT1

## CC(C)=CCc1c(O)cc(/C=C/c2ccc(O)c(O)c2)c(CC=C(C)C)c1O [USYDS7, (E)-2,4-di(3-methyl-2-buten-1-yl)-3,3′,4′,5-tetrahydroxystilbene]
[1]
  effect on free radical scavenging: strong effect

## COc1cc(/C=C/c2cc(O)cc(OC)c2CC=C(C)C)ccc1O [USYDS1, (E)-2-(3-methyl-2-buten-1-yl)-4′,5-dihydroxy-3,3′-dimethoxystilbene]
CDK4/CyclinD3
  Kinases that inhibited more than 60%: CDK4/CyclinD3
[2]; in vivo, mouse, single IP injection, observed 2 weeks
  MTD at 2 weeks: 100 mg/kg
[2]; mouse, 100 mg/kg/dose
  Death days: None
  Survivor/Total day 15: 1/1
[2]; mouse, 200 mg/kg/dose
  Death days: 1
  Survivor/Total day 15: 0/1
[2]; mouse, 400 mg/kg/dose
  Death days: 1
  Survivor/Total day 15: 0/1
[2]; result in words
  mammalian toxicity: low mammalian toxicity
